In patent EP4494649A1, “PEPTIDES FOR USE IN THE TREATMENT OF AXONAL DAMAGE IN DIABETES” (Universität zu Köln, priority 2023, dated 2025):

Key:
[1] = system: Cdk5-p25; settings: embryonal neuronal cells; cited from earlier work
[2] = system: Cdk5-p35; settings: embryonal neuronal cells; cited from earlier work
[3] = system: diabetic sciatic nerve; assay: Anatomical axon regeneration after sciatic nerve crush (SNC) in streptozotocin-induced T1DM mice; assay type: in vivo; settings: strep-induced T1DM mice, intrathecal injection 1 day prior and on the day of the SNC, 3 dpi
Method: (§1) To model type 1 diabetes mellitus (T1DM), male and female wild-type Ola received a single intraperitoneal injection of 100 mg/kg streptozotocin (strep) or vehicle (veh; 0.1 M citrate buffer, pH 4.5) at 4-6 weeks of age. The efficacy of the treatment was confirmed by assessing blood glucose levels 1 week after injection. Strep mice with over 250 mg/dl of blood glucose were considered diabetic. Thus, diabetes was induced 2 months before sciatic nerve crush.
All surgical procedures on mice adhered to respective animal care guidelines and were approved by the local authorities (LANUV Recklinghausen). For intrathecal AAV2.1 (CRMP2T514A-HA, GFP, tdTomato, and Cre-GFP: titer: ≥7·1012 vg/ml, Addgene), a 5 mm skin incision was made above the L4-L5 spines. The muscle tissue was carefully spread, and 2.5 µl of the viral solution was injected into the cerebrospinal fluid between the L4 and L5 spines using a Nanoject II injector (Drummond Scientific) with three consecutive 833 nl injections with a speed of 23 nl/s and 20 s intervals between injections. The skin was closed using 6-0 sutures. Transduction was performed 2 weeks before sciatic nerve crush (SNC). SNC was performed as described in Gobrecht et al., Nature Communications 5, 4561 (2014) and Gobrecht et al., (2016). In brief, animals were anesthetized by inhalation anaesthesia with 1.5% isoflurane in oxygen, and a skin incision of 5 mm was made above the gluteal region. […]
For assessment of anatomical regeneration, the sciatic nerves were isolated 3 days post-injury (dpi). […] Regeneration of sympathetic fibers was quantified with immunostaining against tyrosine hydroxylase (TH; Novus, 1:500; RRID:AB_10077691).
To verify the regeneration-stimulating effect of the peptide, axonal regeneration was determined in vivo. […] Anatomical regeneration was assessed 3 days post-injury (dpi).
To verify the regeneration-stimulating effect in vivo, axonal regeneration was determined. […] Anatomical regeneration was assessed 3 days post-injury (dpi).

[4] = system: CRMP2; assay: Inhibitory CRMP2 phosphorylation (pCRMP2^T514) in DRG of diabetic mice, Western blot and immunostaining; assay type: in vivo
Method: as §1
The intrathecal application of anti-peptide against CDK5 (AP-CDK5) and P5 was performed with the above-described method to assess anatomical regeneration. […]
DRG (L3-L5) or 3 mm of the sciatic nerves proximal to the injury site from three mice per group were homogenized by sonication in 100 µl lysis buffer (20 mM Tris-HCl pH 7.5, 10 mM KCl, 250 mM sucrose, 10 mM NaF, 1mM DTT, 0.1 mM Na3VO4, 1% Triton X-100, 0.1% SDS, 1% protease inhibitors (Merck Millipore) and phosphatase inhibitors (Roche)). […] All antibodies were detected with anti-rabbit or anti-mouse IgG secondary antibodies conjugated to HRP (1:80,000; Sigma). […]
[…] Antibodies were detected with anti-rabbit, anti-goat, or anti-mouse secondary antibodies conjugated to Dylight-405,_Alexa-594, or Alexa-488.
Figure 1H illustrates the timeline of experiments. […] After SNC, SSI and von Frey tests were assessed before the day of SNC, and days 1, 4, 7, 9, 14, 21, 28, and 35 thereafter. […]

[5] = system: diabetic sciatic nerve; assay: Static sciatic index (SSI), functional motor recovery after SNC in diabetic mice; assay type: in vivo
Method: (§2) The intrathecal application of anti-peptide against CDK5 (AP-CDK5) and P5 was performed with the above-described method to assess anatomical regeneration. Either 2 µl AP-CDK5 or P5 (each 4 mg/ml) or vehicle (DMSO) was injected the day before SNC and the day of SNC or the day of SNC and the day after. For analyses of functional recovery, AP-CDKS was injected daily at 400 µg/kg from the day of SNC until the mice were sacrificed. AP-CDKS and P5 (Genescript) were fused to a TAT-sequence for cell membrane penetration and had the following sequence: AP-CDKS: […] and (SEQ ID No. 3) P5: […] (SEQ ID No. 13).
Motor recovery after SNC was determined by calculating the SSI as described in Baptista AF et al., 2007, J Neurosci Methods 161, 259-264 and Gobrecht et al., Nature Communications 5, 1-10 (2014). […] Toe spreading on contralateral (C, left) and ipsilateral (I, right) sides relative to the SNC was assessed by measuring paw_length (PL) and the_distance between the first and fifth toe (FF). The SSI was then calculated using the previously described formula: SSI = 101.3((IFF-CFF)/CFF)-54.03((IPL-CPL)/CPL)-9.5 in as described in Baptista AF et al., 2007, J Neurosci Methods 161, 259-264.
Data represent mean SSI±SEM per experimental group. Statistical significances of intergroup differences were evaluated using two-way ANOVA followed by the Holm Sidak post hoc test. […]

[6] = system: diabetic sciatic nerve; assay: von Frey test, functional sensory recovery after SNC in diabetic mice; assay type: in vivo; settings: i.p. daily 400 µg/kg from the day of SNC, Figure 1M
Method: as §2
Sensory recovery after SNC was determined at the indicated time points after SNC with the von Frey filament test as described in Gobrecht et al., 2014 and Gobrecht et al., (2016). Tests were performed at the same time of day by the same experimenter. Mice were placed on an elevated metal grid (pore size: 2 mm) and allowed to acclimate for 15 min before testing. […] Statistical significances of intergroup differences were evaluated using two-way ANOVA followed by the Holm Sidak post hoc test.
Figure 1H illustrates the timeline of experiments. […] After SNC, SSI and von Frey tests were assessed before the day of SNC, and days 1, 4, 7, 9, 14, 21, 28, and 35 thereafter.

| Sequence | deregulated Cdk5-p25 activity [1] | activity of endogenous Cdk5-p35 [2] | anatomical regeneration of motor fibers ([3]; ChAT staining) | anatomical regeneration of sensory fibers ([3]; SCG10 staining) | anatomical regeneration of sympathetic fibers ([3]; TH staining) | CRMP2 inactivation in neurons (pCRMP2^T514 immunostaining) ([4]; DRG (L6), strep-treated mice, i.p. injection, tissue harvested after completing functional recovery, Figure 1N) | CRMP2 inactivation in DRG neurons (pCRMP2^T514 Western blot) ([4]; L4-L6 DRG, strep T1DM mice, i.p. every day from the SNC until sacrifice, Figures 1I, 1J) | functional motor recovery assessed by static sciatic index (SSI) ([5]; i.p. daily 400 µg/kg from the day of SNC, Figure 1L) | axon regeneration (pictures of the injured paw) ([5]; i.p. daily from SNC, before and 1, 7, 14, 21, 28, 35 dpi, Figure 1K) | functional sensory recovery determined by the von Frey test [6] |
| --- | --- | --- | --- | --- | --- | --- | --- | --- | --- | --- |
| KEAFWDRCLSVINLMSSKMLQINA (listed as Homo sapiens) [p5] | inhibited | did not affect |  |  |  |  |  |  |  |  |
| LVESCKEAFWDRCLSVINLMSSKMYARAARRAARR (REGION 1..35: note = Fusion peptide) [AP-CDK5] |  |  | accelerated | accelerated | accelerated | strongly reduced | strongly reduced | provide a functional effect | accelerated | provide a functional effect |
